According to patent publication US9212210B2, “Akt activity specifically inhibiting polypeptide” (Japan Science and Technology Agency, priority 2003, dated 2015):
Values belong to the substance of their own block, whether it stands above or below them.

Key:
Akt kinase [1] = target: Akt kinase (Homo sapiens, UniProt P31749); assay: In vitro kinase assay of TCL1-induced Akt activation; assay type: biochemical; conditions: for Akt kinase activity: dose escalation
Method: This was predominantly correlated with Akt Ser-473 phosphorylation levels. […] D16G TCL1 was evaluated by Akt kinase activity.

Akt2 [2] = target: T1, Akt2 (Homo sapiens, UniProt P31751); assay: Yeast two-hybrid screening, β-Gal lifting assay and quantitative liquid β-Gal assay; assay type: cell-based; design: expressed in transfected cells; host or cells: yeast Y190 cells (Clontech), lithium acetate method; key to β-Gal lifting assay category of interaction with Akt2: 3 h-positive [++]; 8 h-positive [+]; 24 h-negative [−]; conditions: yeast Y190 cells; for binding to Akt in β-Gal lifting assay and quantitative liquid β-Gal assay: site-directed TCL1 mutants
T1 sequence (P31751 whole entry): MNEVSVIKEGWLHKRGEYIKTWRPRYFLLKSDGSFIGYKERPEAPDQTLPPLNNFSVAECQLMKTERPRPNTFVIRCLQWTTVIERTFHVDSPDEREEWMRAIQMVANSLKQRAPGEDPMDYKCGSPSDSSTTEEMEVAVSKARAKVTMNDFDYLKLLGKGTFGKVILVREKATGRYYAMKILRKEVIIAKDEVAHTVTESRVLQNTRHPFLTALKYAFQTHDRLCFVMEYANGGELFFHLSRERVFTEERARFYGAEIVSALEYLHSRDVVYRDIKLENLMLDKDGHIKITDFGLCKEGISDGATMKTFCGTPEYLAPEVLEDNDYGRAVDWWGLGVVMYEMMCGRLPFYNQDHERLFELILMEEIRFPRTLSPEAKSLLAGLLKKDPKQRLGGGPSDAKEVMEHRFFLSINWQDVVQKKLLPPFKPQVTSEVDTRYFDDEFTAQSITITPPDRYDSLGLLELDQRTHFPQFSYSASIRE
Method: Y190 cells (Clontech), by using lithium acetate method; and human Akt2 (Akt2/PAS2-1) and TCL1 random library, in accordance with the previous report (Mol. Cell 6:395-407; Proc. Natl. Acad. Sci. USA 94:11534-11539); were expressed in yeast. In the presence of 3-amino-1,2,4-triazole (SIGMA), around […] clones from cDNA library were screened. β-galactosidase (β-Gal) activity in His+ colony was measured by using filter-lift assay. Yeast clones were classified into clone categories: 3 h-positive [++], 8 h-positive [+], and 24 h-negative [−] by the intensity of β-Gal. Ten clones were selected from the each category for sequencing of the nucleotide.
Y190 cells (Clontech) were expressed in yeast together with TCL1 of wild-type, D16G, K30M, Q46R, 174V, or M106V by using Akt2/PAS2-1, with the use of pGAD424 (Clontech) vector. TCL1 mutant was produced by using PCR-based site-directed mutagenesis and/or Quikchange kit (Stratagene). Liquid β-Gal assay was performed for quantitative determination of binding intensity by using ONPG (O-nitrophenyl-β-D-galactoppyranoside; Sigma) (Mol. Cell 6:395-407). The indicated values were determined by western blotting analysis (GAL4 activation domain antibody [Ab]: Clontech), and normalized by expressing transformant in each yeast.
Next, a yeast two-hybrid screening was performed to examine the interaction of each clone with Akt2. Yeast clones were classified into three categories based on the blue-color intensity expressed in β-Gal lifting assay (β-Gal positive [++] at 3 h, β-Gal positive [+] at 8 h, and negative [−]). Nucleotide sequences of the 10 clones in each category were determined.

T4 cell lines = assay: Cell growth test by MTT (WST-8 reagent) assay; assay type: cell-based, human; conditions: T4 cell lines without stimulation, 0-50 μM, 48 hours, WST-8, absorbance at 450 nm
Method: Cell growth test was performed by using MTT assay. That is, in experiments of cell growth by using WST-8 reagent [2-(2-methoxy-4-nitrophenyl)-3-(4-nitrophenyl)-5-(2,4-disulfophenyl)-2H-tetrazolium, monosodium salt]
In this method, 10/24 peptide was pre-treated at 0-50 μM concentration in cell growth test by using T4 cell lines without stimulation, 48 hours later the growth potency was measured by using WST-8 reagent assay, the absorbance at 450 nm was measured by ELISA using a microplate reader (Model 550; BioRad, Tokyo, Japan).

Akt2 [3] = target: T1, Akt2; assay: Co-immunoprecipitation binding test with Akt subtype Akt2; design: expressed in transfected cells; host or cells: 293 cells (ATCC), calcium phosphate transfection, pCMV6 vector; conditions: 293 cell lysate, peptide at 400 μM, anti Flag M2 immunoprecipitation, western blotting
Method: (§1) Binding test between 10/24 peptide and Akt subtype molecule: Akt1, Akt2, or Akt3, was performed by using co-immunoprecipitation assay.
(§2) The cell lysate overexpressed Akt kinase in 293 cells (ATCC) i.e., Akt1, Akt2 or Akt3 in pCMV6 was expressed in 293 cells (ATCC) by using calcium phosphate method, and the overexpressed cells were harvested, lysed, and pre-treated with Protein G/A agarose mixture (50% v/v, ProG/A, Pharmacia). Akt or a control peptide (βC) was added to the cell lysate at 400 μM, inoculated with ProG/A for 3 hours at 4° C., and was added anti Flag M2 antibody (Sigma). The resultant immune precipitant was washed, and then were identified the binding to Akt kinase by western blotting (anti-HA antibody, 3F10, Boehringer Mannheim). As shown in the figure, the 10/24 peptide bound to any of the three subtypes of molecules, Akt1, Akt2, and Akt3.

Akt kinase [4] = assay: Binding test by co-immunoprecipitation assay; conditions: lysate of human 293 cells overexpressing AKT kinase, incubated around 2 hours, western blotting
Method: In this method, AKT kinase was overexpressed in human 293 cells, and the harvested cell lysates was incubated with 10/24 peptide (NH2-AVTDHPDRLWAWEKF-COOH) (SEQ ID NO: 1) for around 2 hours. Further, the treated cell lysates were added agarose beads bound to the specific antibody against an epitope that was fused with Akt, and co-incubated for 2-3 hours. Then, molecules adhered in the cell lysates were immunoprecipitated with agarose beads bound to this antibody, and examined the binding to Akt kinase by using western blotting with specific antibody.

[5] = test system: Mouse QrSP-11 fibrosarcoma cells transplanted to C57BL/6 mouse; assay: In vivo anti-tumor effect on transplanted tumor cells; conditions: injected directly into tumor, 2 μM 3 times a week per mouse, versus control peptide
Method: In vivo anti-tumor effect by 10/24 peptide with the use of the transplanted tumor cells was examined.
Mouse QrSP-11 fibrosarcoma cells was transplanted to abdominal wall of C57BL/6 mouse, and examined the inhibition ? effect on tumor growth by peptide. 10/24 peptide or control peptide was injected directly into tumor cells (2 μM was administered 3 times a week for each mouse, shown by arrows in the figure), the tumor diameters were measured and the volumes were calculated.

[6] = test system: Mouse QrSP-11 fibrosarcoma tumors of example 8; assay: Histological examination of peptide treated mouse tumor; assay type: in vivo
Source text: Experimental mouse tumors of example 8 were harvested on the day 9, and histologically examined by macroscopic appearance, hematoxylin-eosin (H&E) staining (an observing method for conditions of cell nucleus and the like), TUNEL (Tdt-mediated dUTP nick end labeling, #MK500, Takara) immunostaining (a histologically identifying method for the way of the atypical death of carcinoma i.e., apoptosis), and phospho Akt (Ser 473) monoclonal antibody (a method for determining 587F11, Cell Signaling, phosphorylation of AKT kinase, and observing the activation).

Akt3 = target: T2, Akt3 (Homo sapiens, UniProt Q9Y243); assay: Co-immunoprecipitation binding test with Akt subtype Akt3; conditions: 293 cell lysate, peptide at 400 μM, anti Flag M2 immunoprecipitation, western blotting
T2 construct: expressed in transfected cells; host or cells: 293 cells (ATCC), calcium phosphate transfection, pCMV6 vector
T2 sequence (Q9Y243 whole entry, species assumed): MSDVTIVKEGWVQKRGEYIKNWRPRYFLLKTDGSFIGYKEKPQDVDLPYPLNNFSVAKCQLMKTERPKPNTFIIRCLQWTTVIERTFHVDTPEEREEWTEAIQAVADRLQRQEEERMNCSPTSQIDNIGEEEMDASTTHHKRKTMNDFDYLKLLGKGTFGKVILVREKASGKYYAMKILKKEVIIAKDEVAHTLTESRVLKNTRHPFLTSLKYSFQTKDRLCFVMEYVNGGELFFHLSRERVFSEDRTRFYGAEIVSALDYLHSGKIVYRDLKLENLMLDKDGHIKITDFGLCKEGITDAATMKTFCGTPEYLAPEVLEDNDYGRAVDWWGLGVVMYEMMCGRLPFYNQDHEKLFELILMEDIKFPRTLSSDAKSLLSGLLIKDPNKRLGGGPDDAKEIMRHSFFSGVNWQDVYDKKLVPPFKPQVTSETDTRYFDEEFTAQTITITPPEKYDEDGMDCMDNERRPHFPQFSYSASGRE
Method: as §1, §2

[7] = test system: human T cell leukemia cells (T4); assay: Apoptosis of T4 cells by propidium iodide staining and FACS; assay type: cell-based
Method: The effect on apoptosis of 10/24 peptide was examined with the use of human T cell leukemia cells (T4).
10/24 peptide (NH2-AVTDHPDRLWAWEKF-COOH) (SEQ ID NO: 1) was pre-treated at 0-30 μM concentrations with the use of T4 cell lines without stimulation, 48 hours later stained with propidium iodide, and the apoptosis was determined by FACS (Beckton Dickinson). Further, to identify the AKT dependency of the anti-tumor effect, myr-AKT (constitutively activated AKT) was overexpressed.

[8] = test system: AKT overexpressed in 293 cells; assay: Inhibition of activation and membrane translocation of AKT in 293 cells (confocal microscope); assay type: cell-based, human; conditions: PDGF-AB 10 minutes, compared with control peptides
Method: Inhibition effect for the activation and membrane translocation of AKT of 10/24 peptide were tested with the use of 293 cells (ATCC).
[…] of AKT was overexpressed in 293 cells (ATCC) with the use of FuGENE6 (Roche Diagnostics). Sixteen hours later the serum was eliminated, and the cells were stimulated with PDGF-AB (Sigma, #3226) for 10 minutes. The cells were fixed with 4% paraformaldehyde, stained with FITC-conjugated anti-HA antibody (12CA5, MBL) or phospho-Ser 473 antibody (587-F11, Cell Signaling), and observed under the confocal microscope (Nikon).
As shown in the FIG. 10, in the 10/24 treated cells (g-i), the inhibition of the membrane translocation and activation of AKT was identified compared with the control peptides (a-f) (around the cells glowed green or yellow as shown in d or f, while this effect was inhibited in the 10/24 peptide as shown in […] or i. See the figure). That is, from the results of the experiment, it was identified that the 10/24 peptide inhibits the activation at the same time as the translocating of AKT to the membrane in cells. AKT essentially translocates to the cell surface where it is activated, but in the 10/24 peptide treated cells, it was identified that the translocation to membrane and activation of AKT was inhibited.

Akt1 = assay: Co-immunoprecipitation binding test with Akt subtype Akt1; conditions: 293 cell lysate, peptide at 400 μM, anti Flag M2 immunoprecipitation, western blotting
Method: as §1, §2

AKT kinase (unactivated) = target: T3, AKT kinase (unactivated) (Homo sapiens, UniProt P31749); assay: Lipid-protein pull down assay with PIP Beads (PI (3,4,5) P3); assay type: binding; conditions: for binding of PIP Beads (PI (3,4,5) P3) to AKT: 1-400 μM peptide, 50 ng AKT kinase, 2 hours at 4° C., western blotting
T3 construct: purchased Upstate Biotechnology #14-279
T3 sequence (P31749 whole entry): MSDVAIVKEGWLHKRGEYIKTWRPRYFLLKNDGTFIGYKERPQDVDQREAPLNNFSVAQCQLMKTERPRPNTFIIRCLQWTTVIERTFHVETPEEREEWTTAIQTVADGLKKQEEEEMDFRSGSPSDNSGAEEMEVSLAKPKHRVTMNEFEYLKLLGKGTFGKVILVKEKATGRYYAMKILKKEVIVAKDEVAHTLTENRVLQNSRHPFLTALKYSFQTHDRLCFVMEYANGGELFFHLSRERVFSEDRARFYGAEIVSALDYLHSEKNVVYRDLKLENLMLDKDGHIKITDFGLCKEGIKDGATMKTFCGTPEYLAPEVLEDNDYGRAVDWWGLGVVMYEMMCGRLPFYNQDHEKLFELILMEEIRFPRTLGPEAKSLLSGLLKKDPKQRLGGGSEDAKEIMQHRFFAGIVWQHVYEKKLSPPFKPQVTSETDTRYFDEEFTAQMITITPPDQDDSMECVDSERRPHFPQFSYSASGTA
Method: Lipid-protein pull down assay was performed for 10/24 peptide of TCL1.
Lipid-protein pull down assay was performed by using PIP Beads (PI (3,4,5) P3 Echelon Bioscience Incorporated). 10/24 NH2-AVTDHPDRLWAWEKF-COOH (SEQ ID NO: 1), and βC NH2-EKQHAWLPLTIE-COOH (SEQ ID NO: 22) as a control, were used. After treatment for 2 hours at 4° C. by using 50 ng of AKT kinase (unactivated, Upstate Biotechnology, #14-279), 25 μl of PIP Beads (PI (3,4,5) P3 Echelon Bioscience Incorporated) was added, then washed with fluid containing (10 mM Hepes, pH7.4, 0.25% NP-40, 140 mM NaCl), and western blotting was performed by using Akt antibody (Cell Signaling) (FIG. 8). […] Thus, this is considered to be the inhibition mechanism for Akt activation.

Recombinant Akt protein = assay: In vitro Akt kinase assay with GSK as substrate; assay type: biochemical; conditions: 200 μM peptide, reacted 2 hours, phosphorylation 4 minutes at 30° C., western blotting
Method: With the use of the GSK as substrate Akt kinase assay was performed, and inhibition test for Akt activation with 10/24 peptide was performed.
In vitro Akt kinase assay was performed by using kit (Cell Signaling, #9840). Recombinant Akt protein extracted from mammalian cells was mixed with 200 μM concentrations of peptide, and reacted for 2 hours. Phosphorylation was performed for 4 minutes at 30° C. After analyzing the reaction mixture on SDS gels, GSK phosphorylation was determined by western blotting.

[9] = test system: Akt in mouse QrSP-11 fibrosarcoma cells; assay: Inhibition of Akt phosphorylation activation in PDGF-stimulated QrSP-11 cells (western blotting); assay type: cell-based; conditions: 50 mM peptide for 16 hours, PDGF stimulation
Method: Inhibition effect on Akt activation of AKT phosphorylation (serine 473 residue, threonine 308 residue) of 10/24 peptide and control peptide in mouse QrSP-11 fibrosarcoma cells were examined.
QrSP-11 cells were mixed with 50 mM concentrations of peptide for 16 hours. Then the mixture was stimulated with PDGF (PDGF-AB, Sigma, 3226). The cells were lysed in the presence of phosphatase inhibitor, analyzed on SDS gels, and western blotting was performed by ECL (Amersham) with the use of various antibodies (Cell Signaling; anti-Akt #9272, anti-pThr 308 #9275L, and anti-pSer 473 #9271L). As shown in the figure, in the 10/24 peptide treated cells, phosphorylations of both serine 473 and threonine 308 were inhibited as shown at the right in the figure. That is, phosphorylation inhibition caused by 10/24 peptide was indicated by diluting the black bands at the right compared to the second and forth rows from the left in the figure.

Akt kinase (Homo sapiens, UniProt P31749), sequence (P31749 whole entry): as above

Substance: I74V: amino acid-substituted mutant form of TCL1 (I74V)
binding to Akt in β-Gal lifting assay and quantitative liquid β-Gal assay (Akt2 [2]): dramatic decrease

Substance: NH2-EKQHAWLPLTIE-COOH (H-EKQHAWLPLTIE-OH; listed as Homo sapiens) [βC, reference compound]
binding of PIP Beads (PI (3,4,5) P3) to AKT (AKT kinase (unactivated)): did not inhibit at all

Substance: Wild-type TCL1: human TCL1 protooncogene protein, co-activator of Akt
Akt kinase activity (Akt kinase [1]): increase in Akt kinase activity
β-Gal lifting assay category of interaction with Akt2 (Akt2 [2]; blue-color intensity): ++

The next lines start with results.

GSK-3α phosphorylation and Akt Ser-473 phosphorylation (Akt kinase [1]): did not affect
binding to Akt in β-Gal lifting assay and quantitative liquid β-Gal assay (Akt2 [2]): dramatic decrease
Substance: D16G TCL1: amino acid-substituted mutant form of TCL1 (D16G)
Akt kinase activity (Akt kinase [1]): did not affect the Akt kinase activity

binding to Akt2 (Akt2 [3]): bound
binding to Akt kinase (Akt kinase [4]): specifically binds
binding to Akt3 (Akt3): bound
binding to Akt1 (Akt1): bound
mode of inhibition of the binding of Phosphoinositide (PI (3,4,5) P3) to Akt kinase (AKT kinase (unactivated)): competitively inhibits
binding of PIP Beads (PI (3,4,5) P3) to AKT (AKT kinase (unactivated)): inhibited in a dose-dependent manner
phosphorylation potency of Akt for GSK peptide (Akt kinase activity) (Recombinant Akt protein): effectively inhibited
Substance: NH2-AVTDHPDRLWAWEKF-COOH (H-AVTDHPDRLWAWEKF-OH; listed as Homo sapiens) [10/24 peptide, amino acid residue 10-24 of human TCL1]
cell growth associated with AKT activation (T4 cell lines): specifically inhibits cell growth
tumor growth (tumor volume) [5]: tumor growth was effectively inhibited
Akt activation (phospho Akt Ser 473 staining) ([6]; tumors harvested on day 9): inhibition of Akt activation
apoptosis by H&E staining ([6]; tumors harvested on day 9): increased apoptosis
cell apoptosis by TUNEL staining ([6]; tumors harvested on day 9): increased cell apoptosis
tumor size by macroscopic appearance ([6]; tumors harvested on day 9, compared to the control): reduction in tumor size was clearly observed
apoptosis ([7]; T4 cell lines without stimulation, 0-30 μM, 48 hours, compared with control peptide): enhance apoptosis
apoptosis with myr-AKT (constitutively activated AKT) overexpression ([7]; T4 cells, AKT dependency of the effect): apoptosis was inhibited
membrane translocation of AKT ([8]; anti-HA staining): inhibited
activation of AKT (phospho-Ser 473 staining) [8]: inhibited
phosphorylation of Akt serine 473 [9]: inhibited
phosphorylation of Akt threonine 308 [9]: inhibited
